Results: patent US12385061B2, “Compositions and methods for chimeric ligand receptor (CLR)-mediated conditional gene expression” (Poseida Therapeutics, Inc., priority 2017, dated 2025)
Where two headings read alike, the source gives them in different places.

What was measured:
cells [1] = test: Amount of AP1903 needed in vitro for effective signaling of cells; type: cell-based; conditions: converted with 1600 Da MW
Method: The fixed dose of AP1903 for injection used, for example, may be 0.4 mg/kg intravenously infused over 2 hours. The amount of AP1903 needed in vitro for effective signaling of cells is 10-100 nM (1600 Da MW). This equates to 16-160 μg/L or {tilde over ( )}0.016-1.6 μg/kg (1.6-160 μg/kg). Doses up to 1 mg/kg were well-tolerated in the Phase I study of AP1903 described above. Therefore, 0.4 mg/kg may be a safe and effective dose of AP1903 for this Phase I study in combination with the therapeutic cells.

[2] = cited from earlier work
cells [3] = conditions: cited from earlier work

For `CC[C@H](C(=O)N1CCCC[C@H]1C(=O)O[C@H](CCc1ccc(OC)c(OC)c1)c1cccc(OCC(=O)NCCNC(=O)COc2cccc([C@@H](CCc3ccc(OC)c(OC)c3)OC(=O)[C@@H]3CCCCN3C(=O)[C@@H](CC)c3cc(OC)c(OC)c(OC)c3)c2)c1)c1cc(OC)c(OC)c(OC)c1` (relative stereo) [AP1903, 2-Piperidinecarboxylic acid, 1-[(2S)-1-oxo-2-(3,4,5-trimethoxyphenyl)butyl]-, 1,2-ethanediylbis[imino(2-oxo-2,1-ethanediyl)oxy-3,1-phenylene[(l R)-3-(3,4-dimethoxyphenyl)propylidene]]ester, [2S-[1(R*),2R*[S*[S*[1(R*),2R*]]]]]-(9Cl)], the “amount needed in vitro for effective signaling of cells, converted” value (cells [1]) is listed as 16 to 160 µg/L, the pharmacokinetic profile ([2]; 0.01-1.0 mg/kg IV over 2 hours) is listed as “favorable pharmacokinetic profile” and the “plasma levels in relation to dose” value ([2]; 0.01-1.0 mg/kg IV over 2 hours) is listed as “directly proportional to dose”. For the same compound, the “plasma level as % of maximal concentration” value (shortened to “plasma level as %”) ([2]; 0.5 hours post-dose) was “approximately 18%”, the “plasma level as %” value ([2]; 2 hours post-dose) was about 7% and the “plasma level as %” value ([2]; 10 hours post-dose) was about 1%. The doses well-tolerated ([2]; Phase I study) was “up to 1 mg/kg”, the safety and tolerability ([2]; at all dose levels (0.01-1.0 mg/kg)) was “safe and well tolerated” and the “mean Cmax” value ([2]; over the 0.01-1.0 mg/kg dose range, single doses infused IV over 2 hours, 24 healthy volunteers) was 10 to 1275 ng/mL. The “amount needed in vitro for effective signaling of cells” value (cells [3]) was 10 to 100 nM.
